Data: patent publication US20090075921A1, “Bone/joint disease sensitivity gene and use thereof” (Riken, priority 2004, published 2009)

How the values were obtained:
ATDC5 [1] = test: Chondrocyte differentiation experiments in ATDC5 with CaM inhibitor; type: cell-based, mouse; conditions: W-7 20 μM in insulin-containing differentiation medium
From the text: The embryonic tumor-derived cloned cell line ATDC5 is an in vitro chondrocyte differentiation model that enables the reproduction of all differentiation stages of chondrocytes, from initial differentiation to terminal differentiation, in the presence of insulin. To analyze the role of calmodulin (CaM) in chondrocyte differentiation, the present inventors cultured ATDC5 in the presence of W-7, which is a CaM inhibitor, and quantified the expression levels of chondrocyte differentiation markers, i.e., the type II collagen gene (Col2a1), the aggrecan gene (Agc1), and the type X collagen gene (Col10a1). […] Medium exchange was performed every two days; cultivation was continued for up to 22 days, counted from the day of exchange to the differentiation medium. […] Quantitative real-time PCR was performed using ABI PRISM 7700 (Applied Biosystems). PCR reactions were performed using a system of a final volume of 20 μl [reverse transcription reaction mixture 1 μl, QuantiTect SYBR Green PCR (QIAGEN) 10 μl, 10 μM forward primer 0.6 μl, 10 μM reverse primer 0.6 μl, […]]. […] The copy number of the target gene in each sample was calculated from a calibration curve prepared using serial dilutions of target gene DNA of a known copy number. The expression level of each gene was corrected by total RNA content calculated with the expression level of Gapdh as the index.

RCJ3.1C5.18 cells = test: Ionomycin stimulation experiments in chondrocyte precursor cell line RCJ3.1C5.18; type: cell-based, rat; conditions: ionomycin 2 μM, W-7 0 to 10 μM, 24 hours
Protocol: RCJ3.1C5.18 cells are cells having characters as chondrocyte precursor cells, and showing increased expression of the type II collagen gene and the aggrecan gene in response to stimulation with ionomycin, which is a reagent that raises intracellular calcium concentrations. The present inventors analyzed the involvement of CaM in this reaction using W-7, which is a CaM inhibitor. For ordinary culture, DMEM (Sigma) comprising 10% FBS and antibiotics (100 U/ml penicillin G and 100 μg/ml streptomycin) was used. The stimulation experiments were performed by the procedure shown below. Cells were inoculated to a 12-multiwell plate at 1×10^5 cells/well. […] Quantitative real-time PCR was performed using ABI PRISM 7700 (Applied Biosystems). PCR reactions were performed using a system of a final volume of 20 μl [reverse transcription reaction mixture 1 μl, QuantiTect SYBR Green PCR (QIAGEN) 10 μl, 10 μM forward primer 0.6 μl, 10 μM reverse primer 0.6 μl, […]]. […] The copy number of the target gene in each sample was calculated from a calibration curve prepared using serial dilutions of target gene DNA of a known copy number. The expression level of each gene was corrected by total RNA content calculated with the expression level of GADPH as the index.

NHAC [2] = test: Time course of asporin gene expression by TGF-β1 in NHAC; type: cell-based, human; conditions: TGF-β1 10 ng/ml
Protocol: A time course of the expression of the asporin gene by TGF-β1 in NHAC was examined as described below. Cells were inoculated to a 12-well plate at 1×10^5 cells/well, and cultured in a DMEM/F12 containing 10% FBS until they became confluent. The medium was exchanged with a DMEM/F12 containing 0.2% FBS, and the cells were cultured for 24 hours, after which TGF-β1 (10 ng/ml) was added, total RNA was extracted over time, and the expression levels of the asporin and GAPDH genes were examined. As a result, the expression level of the asporin gene maximized when the cells were cultured in the presence of TGF-β1 (10 ng/ml) for 12 hours, and thereafter the expression level decreased over time (FIG. 46).

NHAC-kn = test: Induction with TGF-β1 of asporin gene expression in NHAC-kn; type: cell-based, human; conditions: TGF-β1 10 ng/ml, 24 hours
Protocol: (§1) In various cartilage lineage cell lines, the potential of TGF-β1 for inducing asporin gene expression was examined by the method described below. OUMS-27 was cultured in a DMEM containing 10% FBS, CS-OKB was cultured in an RPMI1640 containing 10% FBS, and normal human articular chondrocytes of knee joint (NHAC-kn, P7, monolayer, Clonetics) were cultured using Chondrocyte Growth Medium (CGM, Clonetics). ATDC5 was cultured using the medium 1-2 described in Example 13. For the induction experiments in the cartilage lineage cell lines, cells were cultured in the above-described media until they became confluent, after which the medium was exchanged with a medium containing 0.2% FBS, and the cells were cultured for 12 hours; TGF-β1 (10 ng/ml) was added, and the cells were further cultured for 24 hours. RNA extraction, cDNA synthesis, and real-time PCR were performed by the methods described in Example 12.

ATDC5 [3] = test: Induction with TGF-β1 of asporin gene expression in ATDC5; type: cell-based, mouse; conditions: TGF-β1 10 ng/ml, 24 hours
Protocol: as §1

NHAC [4] = test: Articular chondrocyte differentiation maintenance in redifferentiated NHAC; type: cell-based, human; conditions: 7 days, TGF-β1 40 ng/ml, asporin 20 μg/ml where added
Protocol: NHAC was redifferentiated by alginate beads culture for 2 weeks using a chondrocyte differentiation medium (CDM) manufactured by Cambrex Company according to the protocol attached. These redifferentiated cells were inoculated to a Lab-Tek II chamber slide (Nunc), a DMEM/F12 containing 5% FBS, ITS (Sigma), and TGF-β1 (40 ng/ml) was added, and the cells were allowed to maintain the degree of differentiation thereof; the effects of addition of asporin (20 μg/ml) on the cell morphology and extracellular proteoglycan accumulation were examined.

NHAC [5] = test: MTT assay of TGF-β1-stimulated cell growth in NHAC; type: cell-based, human; conditions: TGF-β1 40 ng/ml alone, 5 days
Protocol: NHAC was inculated to a 12-well plate at 1×10^5 cells/well, and cultured in a DMEM/F12 containing 10% FBS supplemented with TGF-β1 (40 ng/ml) and asporin (5 or 20 μg/ml) for 5 days, after which the degree of cell growth was examined by the MTT assay method described below. Specifically, 3-(4,5-dimethyl-2-thiazolyl)-2,5-diphenyl-2H-tetrazolium bromide (MTT, Dojindo Laboratory) was dissolved in DMEM/F12 to obtain a concentration of 1 mg/ml, the solution was added to the cells after the medium was removed by suction, and the cells were cultured at 37° C. for 1 hour. Thereafter the medium containing MTT was discarded, and the cells were subjected to extraction treatment using a Lysis reagent (86% isopropanol, 40 mM hydrochloric acid, 1% SDS). This cell lysate was transferred to a 96-well plate, and the absorbance at 550 nm was measured using a microplate reader.

OUMS-27 = test: Induction with TGF-β1 of asporin gene expression in OUMS-27; type: cell-based, human; conditions: TGF-β1 10 ng/ml, 24 hours
Protocol: as §1

Molecule	increases in the expression levels of Col2a1 and Agc1 (ATDC5 [1]; real-time PCR)	expression level of Col10a1 (ATDC5 [1]; up to Day 22)	ionomycin-induced expression of the type II collagen gene and the aggrecan gene (RCJ3.1C5.18 cells)	culture time at which the expression level of the asporin gene maximized (NHAC [2]) [h]	expression level of asporin after 3 days in the presence of TGF-β1 (NHAC [2]; vs control)	expression of the asporin gene with TGF-β1 stimulation (NHAC-kn)	expression of asporin with TGF-β1 stimulation (ATDC5 [3])	Safranine-O stainability (extracellular proteoglycan) (NHAC [4])	cell morphology (NHAC [4])	cell growth of NHAC (MTT, absorbance at 550 nm) (NHAC [5])	expression of the asporin gene with TGF-β1 stimulation (OUMS-27)
NCCCCCCNS(=O)(=O)c1cccc2c(Cl)cccc12 [W-7]	suppressed to about half	further rose	suppressed dose-dependently	–	–	–	–	–	–	–	–
TGF-β1: TGF-β isoform, regulatory factor of cartilage differentiation used as stimulus	–	–	–	12	smaller than that without induction	significant increases	tended to be slightly suppressed	positive	egg-like morphology	increased	significant increases
